Test results as given in patent publication US20230374034A1, “NOVEL BICYCLIC COMPOUNDS” (PRISM BIOLAB CO., LTD., priority 2020, published 2023).
Where two headings read alike, the source gives them in different places.

Tested on: NICD (Notch intracellular domain) CSL-bla reporter in HeLa cells
Test: Notch assay (CellSensor T-REx NICD CSL-bla HeLa beta-lactamase reporter; Method 1 / Method 2)
Format: cell-based
Settings: Homo sapiens, 10 μM compound, read-out: inhibiton (%) at 10 μM
Description: We used the CellSensor T-REx™ NICD CSL-bla HeLa cell line, which was engineered by lentiviral transduction of HeLa cells with a Notch response element driving beta-lactamase reporter gene expression (CSL-bla) along with DOX (doxycycline)-inducible NICD (Notch intracellular domain) constructs. Addition of DOX to these cells allows for regulated NICD transcription factor expression and subsequent beta-lactamase expression.
Specifically, the following protocol was used.
NOTCH ASSAY PROTOCOL (Method 2)
• 1. Add 40 nL/well of working concentration of 1000× compound to 384-well assay plate with Echo. • 2. Plate Cells: 35 μl/well of HeLa/T-REx™ NICD CSL-bla cells at 10^3 cells/well complete medium into 384-well plate. • 3. Add 5 μl 8× Doxycycline in Assay Medium to the treated wells, and 5 μl Assay Medium to the Untreated and cell free control wells. • 4. Incubate the assay plate in a humidified 37° C./5% CO2 incubator for 16-20 hours. • 5. Preparation of 6× LiveBLAzer™-FRET B/G Substrate (CCF4-AM) Mixture according to the manual and cell loading should be done in the absence of direct strong lighting. • 6. Remove assay plate from the humidified 37° C./5% CO2 incubator. Add 8 μl of 6× Substrate Mixture from Step 5 to each well. Cover the plate to protect it from light and evaporation. Incubate at room temperature for 4 hours. • 7. Reading an Assay Plate using the following filter selections:
• 8. Data analysis: Use the assay plate layout to identify the location of the Cell-free wells. These control wells are used for background subtraction. Determine the average emission from the Cell-free wells at both 460 nm (Average Blue Background) and 530 nm(Average Green Background). Subtract the Average Blue Background (data collected at 460 nm) from all of the blue emission data. Subtract the Average Green background (data collected at 530 nm) from all of the green emission data. Calculate the Blue/Green Emission Ratio for each well, by dividing the background-subtracted blue emission values by the background-subtracted green emission values.
Instead of Step 1 to Step 3, the following Step a to Step d can also be performed. The subsequent steps are the same as Method 2, after Step 4 (Method 1). • a. Plate Cells: 32 μL/well of HeLa/T-REx™ NICD CSL-bla cells at 10^3 cells/well complete medium into 384-well plate. • b. Prepare 10× compounds in assay medium. • c. Add 4 μL compounds or 1% DMSO in assay medium to the cells. • d. Add 4 μL 10×Doxycycline in Assay Medium to the treated wells, and 4 μL Assay Medium to the Untreated and cell free control wells.
The results are shown in Table 13 (Table 13-1 to Table 13-2).

[1] = Method 1 (10× compound prepared in assay medium, added to plated cells)
[2] = Method 2 (40 nL of 1000× compound added to plate with Echo)

SMILES	inhibition at 10 µM [1] [%]	inhibition at 10 µM [2] [%]
CC(C)C[C@H]1ON(C(=O)OCc2cccc3ccccc23)C2CN(CCC(N)=O)C(=O)[C@H](CC3CCCCC3)N2C1=O (stereo partly drawn) [Compound I-13, (3R,6S)-naphthalen-1-ylmethyl 8-(3-amino-3-oxopropyl)-6-(cyclohexylmethyl)-3-isobutyl-4,7-dioxohexahydropyrazino[2,1-c][1,2,4]oxadiazine-1(6H)-carboxylate]	55.5	–
CC(C)CCNC(=O)[C@H](Cc1ccc(O)cc1)N1CC2N(C(=O)OCCc3ccc(O)cc3)O[C@H](Cc3ccccc3)C(=O)N2[C@@H](Cc2ccc(O)cc2)C1=O (stereo partly drawn) [Compound I-108, 4-hydroxyphenethyl (3R,6S)-3-benzyl-6-(4-hydroxybenzyl)-8-((S)-3-(4-hydroxyphenyl)-1-(isopentylamino)-1-oxopropan-2-yl)-4,7-dioxohexahydropyrazino[2,1-c][1,2,4]oxadiazine-1(6H)-carboxylate]	–	72.4
NC(=O)C[C@H]1C(=O)N(CCc2cccc3ccccc23)CC2N(C(=O)OCC3CCCCC3)O[C@H](Cc3ccc(O)cc3)C(=O)N21 (stereo partly drawn) [Compound I-49, (3R,6S)-cyclohexylmethyl 6-(2-amino-2-oxoethyl)-3-(4-hydroxybenzyl)-8-(2-(naphthalen-1-yl)ethyl)-4,7-dioxohexahydropyrazino[2,1-c][1,2,4]oxadiazine-1(6H)-carboxylate]	–	92.6
CC(C)CCN1CC2N(C(=O)OCc3cccc4ccccc34)O[C@H](Cc3ccccc3)C(=O)N2[C@@H](Cc2ccc(O)cc2)C1=O (stereo partly drawn) [Compound I-16, (3R,6S)-naphthalen-1-ylmethyl 3-benzyl-6-(4-hydroxybenzyl)-8-isopentyl-4,7-dioxohexahydropyrazino[2,1-c][1,2,4]oxadiazine-1(6H)-carboxylate]	79.8	–
CC(C)[C@H]1ON(C(=O)OCC2CCCCC2)C2CN(Cc3ccccc3)C(=O)[C@H](Cc3ccc(O)cc3)N2C1=O (stereo partly drawn) [Compound I-7, (3R,6S)-cyclohexylmethyl 8-benzyl-6-(4-hydroxybenzyl)-3-isopropyl-4,7-dioxohexahydropyrazino[2,1-c][1,2,4]oxadiazine-1(6H)-carboxylate]	55.5	–
CCCCCOC(=O)N1O[C@H](CC(C)C)C(=O)N2C1CN([C@@H](Cc1ccc(O)cc1)C(=O)NCCC(C)C)C(=O)[C@@H]2Cc1ccc(O)cc1 (stereo partly drawn) [Compound I-96, pentyl (3R,6S)-6-(4-hydroxybenzyl)-8-((S)-3-(4-hydroxyphenyl)-1-(isopentylamino)-1-oxopropan-2-yl)-3-isobutyl-4,7-dioxohexahydropyrazino[2,1-c][1,2,4]oxadiazine-1(6H)-carboxylate]	–	56.3
NC(=O)CC[C@H]1C(=O)N([C@@H](Cc2ccccc2)C(=O)NCCCc2ccccc2)CC2N(C(=O)OCCc3ccc(O)cc3)O[C@H](Cc3ccccc3)C(=O)N21 (stereo partly drawn) [Compound I-126, 4-hydroxyphenethyl (3R,6S)-6-(3-amino-3-oxopropyl)-3-benzyl-4,7-dioxo-8-((S)-1-oxo-3-phenyl-1-((3-phenylpropyl)amino)propan-2-yl)hexahydropyrazino [2,1-c][1,2,4]oxadiazine-1(6H)-carboxylate]	–	67.2
CC(C)C[C@H]1ON(C(=O)OCC2CCCCC2)C2CN(CCc3ccccc3)C(=O)[C@H](CCCCN)N2C1=O (stereo partly drawn) [Compound I-30, (3R,6S)-cyclohexylmethyl 6-(4-aminobutyl)-3-isobutyl-4,7-dioxo-8-phenethylhexahydropyrazino [2,1-c][1,2,4]oxadiazine-1(6H)-carboxylate]	–	117
CC(C)C[C@H]1ON(C(=O)OCCc2ccccc2)C2CN([C@@H](Cc3ccccc3)C(=O)NCCCc3ccccc3)C(=O)[C@H](CCC(N)=O)N2C1=O (stereo partly drawn) [Compound I-123, phenethyl (3R,6S)-6-(3-amino-3-oxopropyl)-3-isobutyl-4,7-dioxo-8-((S)-1-oxo-3-phenyl-1-((3-phenylpropyl)amino)propan-2-yl)hexahydropyrazino[2,1-c][1,2,4]oxadiazine-1(6H)-carboxylate]	–	52.3
CC(C)CCNC(=O)[C@H](Cc1ccc(O)cc1)N1CC2N(C(=O)OCCc3ccc(O)cc3)O[C@H](CC(C)C)C(=O)N2[C@@H](Cc2ccc(O)cc2)C1=O (stereo partly drawn) [Compound I-95, 4-hydroxyphenethyl (3R,6S)-6-(4-hydroxybenzyl)-8-((S)-3-(4-hydroxyphenyl)-1-(isopentylamino)-1-oxopropan-2-yl)-3-isobutyl-4,7-dioxohexahydropyrazino[2,1-c][1,2,4]oxadiazine-1(6H)-carboxylate]	–	60.1
C[C@H]1ON(C(=O)OCCc2ccc(O)cc2)C2CN([C@@H](Cc3ccccc3)C(=O)NCCC(N)=O)C(=O)[C@H](Cc3ccccc3)N2C1=O (stereo partly drawn) [Compound I-86, 4-hydroxyphenethyl (3R,6S)-8-((S)-1-((3-amino-3-oxopropyl)amino)-1-oxo-3-phenylpropan-2-yl)-6-benzyl-3-methyl-4,7-dioxohexahydro-pyrazino[2,1-c] [1,2,4]oxadiazine-1(6H)-carboxylate]	–	70.9
CC(C)C[C@H]1ON(C(=O)NCCC(c2ccccc2)c2ccccc2)C2CN(CCC(c3ccccc3)c3ccccc3)C(=O)[C@H](CCC(N)=O)N2C1=O (stereo partly drawn) [Compound I-56, (3R,6S)-6-(3-amino-3-oxopropyl)-N,8-bis(3,3-diphenylpropyl)-3-isobutyl-4,7-dioxohexahydropyrazino[2,1-c][1,2,4]oxadiazine-1(6H)-carboxamide]	–	53
CC(C)CCOC(=O)N1O[C@H](Cc2ccc(O)cc2)C(=O)N2C1CN([C@@H](CC(C)C)C(=O)NCCc1ccccc1)C(=O)[C@@H]2Cc1ccc(O)cc1 (stereo partly drawn) [Compound I-114, isopentyl (3R,6S)-3,6-bis(4-hydroxybenzyl)-8-((S)-4-methyl-1-oxo-1-(phenethylamino)pentan-2-yl)-4,7-dioxohexahydropyrazino[2,1-c][1,2,4]oxadiazine-1(6H)-carboxylate]	–	56.3
CC(C)C[C@@H](C(=O)NCCc1ccccc1)N1CC2N(C(=O)OCCc3ccc(O)cc3)O[C@H](Cc3ccccc3)C(=O)N2[C@@H](C)C1=O (stereo partly drawn) [Compound I-121, 4-hydroxyphenethyl (3R,6S)-3-benzyl-6-methyl-8-((S)-4-methyl-1-oxo-1-(phenethylamino)pentan-2-yl)-4,7-dioxohexahydropyrazino [2,1-c][1,2,4]oxadiazine-1(6H)-carboxylate]	–	63.3
O=C1[C@H](CO)N2C(=O)[C@@H](Cc3ccc(O)cc3)ON(C(=O)OCC3CCCCC3)C2CN1CCc1cccc2ccccc12 (stereo partly drawn) [Compound I-47, (3R,6S)-cyclohexylmethyl 3-(4-hydroxybenzyl)-6-(hydroxymethyl)-8-(2-(naphthalen-1-yl)ethyl)-4,7-dioxohexahydropyrazino[2,1-c][1,2,4]oxadiazine-1(6H)-carboxylate]	–	71.4
NC(=O)CC[C@H]1ON(C(=O)NCCC(c2ccccc2)c2ccccc2)C2CN(Cc3cccc4ccccc34)C(=O)[C@H](Cc3ccccc3)N2C1=O (stereo partly drawn) [Compound I-54, (3R,6S)-3-(3-amino-3-oxopropyl)-6-benzyl-N-(3,3-diphenylpropyl)-8-(naphthalen-1-ylmethyl)-4,7-dioxohexahydropyrazino[2,1-c][1,2,4]oxadiazine-1(6H)-carboxamide]	–	60.4
CC(C)CCOC(=O)N1O[C@H](C)C(=O)N2C1CN([C@@H](Cc1ccccc1)C(=O)NCCCC(N)=O)C(=O)[C@@H]2Cc1ccccc1 (stereo partly drawn) [Compound I-87, isopentyl (3R,6S)-8-((S)-1-((4-amino-4-oxobutyl)amino)-1-oxo-3-phenylpropan-2-yl)-6-benzyl-3-methyl-4,7-dioxohexahydro-pyrazino[2,1-c] [1,2,4]oxadiazine-1(6H)-carboxylate]	–	58.3
CCCCCC[C@H]1C(=O)N(C2CCN(C)CC2)C[C@@H]2N(CCCc3ccccc3)O[C@H](CC(C)C)C(=O)N21 [Compound I-142, (3R,6S,9aS)-6-hexyl-3-isobutyl-8-(1-methylpiperidin-4-yl)-1-(3-phenylpropyl) tetrahydropyrazino [2,1-c][1,2,4]oxadiazine-4,7(3H,6H)-dione]	–	113
